pIC50: −log10 of the molar value. Values joined by “and” are separate entries in the source; they are usually repeats but may differ in a detail not shown here. Equal values may be shown once. Read-outs that look alike come from different tables or passages of the source. Blank lines part the entries; values can stand above or below the compound they belong to.
Legend:
[1] = target: kynurenine aminotransferase II (KAT II) (Rattus norvegicus, UniProt Q64602); test: Reverse microdialysis of the KAT II inhibitor ESBA in JM6-treated rats; format: in vivo; conditions: JM6 100 mg/kg p.o., ESBA 1 mM locally for 2 h by reverse microdialysis
[2] = format: in vivo, mice; conditions: 5 h
KMO [3] = test: In vivo microdialysis in prefrontal cortex of rats treated 7 days with JM6; conditions: JM6 for 7 days, 100 mg/kg/day p.o. (legend: 75 mg/kg/day)
APPtg mice [4] = test: Morris water maze in APPtg mice; format: in vivo
APPtg mice [5] = test: Elevated plus maze in APPtg mice; format: in vivo; conditions: JM6 75 mg/kg/day p.o. for ~120 days
APPtg mice [6] = test: Neuropathology; format: in vivo
APPtg mice [7] = format: in vivo; conditions: JM6 75 mg/kg/day p.o. for 120 days
R6/2 mice [8] = test: Survival, body weight and rotarod in R6/2 mice; format: in vivo; conditions: chronic JM6 p.o., data not shown
WT mice = test: Chronic tolerability of JM6 in WT mice; format: in vivo; conditions: JM6 25 mg/kg/day p.o. for 12 months, data not shown
R6/2 mice [9] = test: Neuropathology; format: in vivo
KMO [10] = test: In vivo microdialysis in striatum and serum sampling of rats after acute JM6; conditions: for Level in brain dialysate: JM6 100 mg/kg p.o., data not shown
KMO [11] = target: KMO (Rattus norvegicus, UniProt O88867); test: Inhibition of KMO; format: biochemical; conditions: read-out: IC50 for KMO
[12] = Ro 61-8048 levels in plasma and tissues of chronically JM6-treated R6/2 mice; format: in vivo
[13] = Metabolic stability of Ro 61-8048; format: in vitro ADME; conditions: data not shown
[14] = WT mice, single JM6 300 mg/kg p.o., LC/MS, 300 mg/kg
[15] = JM6 75 mg/kg/day p.o., data not shown
[16] = JM6 7.5 or 25 mg/kg/day p.o., 12-week-old mice
[17] = WT mice, single JM6 300 mg/kg p.o., LC/MS
[18] = R6/2 mice chronically treated with JM6

Chain of kynurenine aminotransferase II (KAT II) (Q64602 30-425): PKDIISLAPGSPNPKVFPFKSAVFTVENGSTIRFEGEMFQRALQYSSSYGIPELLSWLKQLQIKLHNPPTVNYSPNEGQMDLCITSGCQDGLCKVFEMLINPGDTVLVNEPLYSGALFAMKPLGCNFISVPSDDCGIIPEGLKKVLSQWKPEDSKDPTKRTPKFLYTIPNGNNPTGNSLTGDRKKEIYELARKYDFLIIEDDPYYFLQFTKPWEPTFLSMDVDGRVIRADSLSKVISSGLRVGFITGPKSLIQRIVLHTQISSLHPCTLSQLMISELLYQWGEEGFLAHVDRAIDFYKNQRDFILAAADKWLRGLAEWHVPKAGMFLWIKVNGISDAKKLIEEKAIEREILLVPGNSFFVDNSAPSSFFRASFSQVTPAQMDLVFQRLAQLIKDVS
Chain of KMO (Rattus norvegicus, UniProt O88867) (O88867 whole entry): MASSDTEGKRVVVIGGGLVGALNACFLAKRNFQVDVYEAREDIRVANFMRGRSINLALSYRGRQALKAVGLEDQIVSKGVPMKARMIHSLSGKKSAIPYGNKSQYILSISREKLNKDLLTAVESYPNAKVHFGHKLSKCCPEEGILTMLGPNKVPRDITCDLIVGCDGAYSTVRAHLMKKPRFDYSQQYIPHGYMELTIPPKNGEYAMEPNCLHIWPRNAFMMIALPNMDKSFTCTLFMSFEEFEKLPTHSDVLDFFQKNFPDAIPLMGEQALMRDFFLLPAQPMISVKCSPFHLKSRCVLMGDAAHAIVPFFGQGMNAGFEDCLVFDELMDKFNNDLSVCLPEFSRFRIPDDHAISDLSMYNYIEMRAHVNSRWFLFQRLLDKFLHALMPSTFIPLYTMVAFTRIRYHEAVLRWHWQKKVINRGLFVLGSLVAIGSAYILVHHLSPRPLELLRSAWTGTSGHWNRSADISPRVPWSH

Effect on JM6-induced increases in brain KYNA [1]: prevented completely | Effect on KYNA levels in serum [1]: unaffected
SMILES: CCS(=O)(=O)c1ccc(C(=O)C[C@H](N)C(=O)O)cc1.Cl [ESBA, (S)-(4-ethylsulfonyl)benzoylalanine hydrochloride]

Muscle and liver levels after acute dosing ([2]; WT mice, JM6 300 mg/kg p.o.): negligible | JM6 concentration in brain [2, 14]: 119 ± 46 nM | JM6 concentration in plasma [2, 14]: 39.1 ± 13.2 µM | Level in brain dialysate (KMO [10]): < 10 nM
SMILES: COc1ccc(S(=O)(=O)Nc2nc(-c3cccc([N+](=O)[O-])c3)c(CN3CCCCC3)s2)cc1OC [JM6, 2-(3,4-dimethoxybenzenesulfonylamino)-4-(3-nitrophenyl)-5-(piperidin-1-yl)methylthiazole]
Extracellular glutamate levels in the brain (prefrontal cortex) (KMO [3]): significant reduction | Spatial memory in Morris water maze, WT mice (APPtg mice [4]; JM6 75 mg/kg/day p.o.): no effect | Spatial memory in Morris water maze, APPtg mice (APPtg mice [4]; JM6 75 mg/kg/day p.o. from 2 months of age, tested at ~6 months): significant improvement | Spatial learning in WT or APPtg mice (APPtg mice [4]; [15]): did not influence | Increase in distance traveled in the open arm of the EPM, APPtg mice (APPtg mice [5]): significantly attenuated | Time spent in the open arm of the elevated plus maze, APPtg mice (APPtg mice [5]): not significantly different from WT littermate controls | Total distance traveled in the EPM (open and closed arm), APPtg mice (APPtg mice [5]): not changed | Synaptic loss (synaptophysin) in cortex and hippocampus, APPtg mice (APPtg mice [6]; JM6 75 mg/kg/day p.o. for 120 days, ~7 months of age): prevented | Aβ plaque load in hippocampus and cortex, APPtg mice (APPtg mice [6]; [15]): did not have a significant effect | Brain 3-HK levels, APPtg mice, vs control mice (APPtg mice [7]): not significantly different | Brain KMO activity, APPtg mice, vs control mice (APPtg mice [7]): not significantly different | Brain KYNA levels, APPtg mice (APPtg mice [7]): increased | Brain QUIN levels, APPtg mice, vs control mice (APPtg mice [7]): not significantly different | Plasma KYNA levels, APPtg mice (APPtg mice [7]): increased | Plasma QUIN levels, APPtg mice, vs control mice (APPtg mice [7]): not significantly different | Body weight of R6/2 mice (R6/2 mice [8]): did not influence | Performance on accelerating rotarod, R6/2 mice (R6/2 mice [8]; early stages of disease): modestly improved | Adverse effects on open field behavior, motor performance, or body weight (WT mice): no adverse effects | Inclusion body size or abundance in frontoparietal cortex, R6/2 mice (R6/2 mice [9]; JM6 25 mg/kg/day p.o. from 4 weeks of age, EM48 immunostaining): did not influence | Iba1-positive cells (microglia) vs vehicle-treated controls, R6/2 mice (R6/2 mice [9]; JM6 7.5 or 25 mg/kg/day p.o. from 4 weeks of age): significantly fewer | Fos immunoreactivity in striatum and cortex, R6/2 mice (R6/2 mice [9]; [16]): prevented the loss | Synaptophysin in striatum and cortex, R6/2 mice (R6/2 mice [9]; [16]): prevented the loss | Serum KYNA level, % of baseline (KMO [10]; single JM6 100 mg/kg p.o., by 5 h): 344% | Extracellular KYNA level in brain (striatum), % of baseline (KMO [10]; single JM6 100 mg/kg p.o., by 5 h, microdialysis): 180%

SMILES: COc1ccc(S(=O)(=O)Nc2nc(-c3cccc([N+](=O)[O-])c3)cs2)cc1OC [Ro 61-8048, 3,4-dimethoxy-[-N-4-(nitrophenyl)thiazol-2yl]-benzenesulfonamide]
pIC50 (KMO [11]): 7.43 | Muscle and liver levels after acute dosing ([2]; WT mice, JM6 300 mg/kg p.o.): negligible | Ro 61-8048 released from JM6, brain level as % of plasma levels ([2]; WT mice, single JM6 300 mg/kg p.o.): 0.002% | Ro 61-8048 released from JM6, concentration in brain [2, 17]: 18 nM and 18 ± 5 nM | Ro 61-8048 released from JM6, concentration in plasma [2, 17]: 7 µM and 7.2 ± 0.8 µM | Ro 61-8048 released from JM6, concentration in liver ([2]; mice, JM6 300 mg/kg p.o.): 132 nM | Ro 61-8048 released from JM6, concentration in muscle ([2]; mice, JM6 300 mg/kg p.o.): 149 nM | Plasma concentration relative to IC50 for KMO [12, 18]: more than eightfold | Ro 61-8048 released from JM6, concentration in plasma [12, 18]: ~ 280 nM | Ro 61-8048 released from JM6 in brain or muscle homogenates ([12]; R6/2 mice chronically treated with JM6, data not shown): could not be detected | Metabolic stability [13]: metabolically unstable | Level in brain dialysate (KMO [10]): < 10 nM
